Measured values as given in EP0329905A1, “Use of quinolizine and quinolizinone derivatives in the manufacture of medicaments for increasing gastric motility” (MERRELL DOW PHARMACEUTICALS INC., priority 1988, dated 1989).
Counter-ions that a name gives are not always drawn.

Tested on: Von Bezold-Jarisch Reflex induced by 5-HT
Assay: Von Bezold-Jarisch Reflex induced by 5-HT injected intravenously into the rat
Format: in vivo
Source text: The activity of these compounds against 5-HT can be assessed in vivo by measurement of the effect of the compound on the Von Bezold-Jarisch Reflex induced by 5-HT injected intravenously into the rat (see Paintal A.S., Physiol. Rev. 53, 159-227, 1973; J.R. Fozard, Naunyn-Schmiedeberg's Arch. Pharmacol., 326, 1984, 36-44). The transient cardiac slowing arises from an increased afferent vagus activity arising from stimulation by 5-HT of sensory afferent fibers in and around the heart.

[1] = doses of 0.01-0.1 mg/kg given intravenously
[2] = doses of 0.25-1 mg/kg given orally

Row | SMILES | suppression of the Von Bezold-Jarisch Reflex induced by 5-HT [1] | suppression of the Von Bezold-Jarisch Reflex induced by 5-HT [2]
1 | Cc1cc(C)cc(C(=O)OC2CC3CC4CC(C2)N3CC4=O)c1 (stereo not drawn) [endo-8-(3,5-dimethylbenzoyloxy)hexahydro-2,6-methano-2H-quinolizin-3(4H)-one hydrochloride] | suppressed the response dose-dependently | suppressed the response dose-dependently
2 | O=C(OC1CC2CC3CC(C1)N2CC3=O)c1c[nH]c2ccccc12 (stereo not drawn) [endo-hexahydro-8-(3-indolylcarbonyloxy)-2,6-methano-2H-quinolizin-3(4H)one hydrochloride] | suppressed the response dose-dependently | suppressed the response dose-dependently
